Experimental data reported in ChEMBL document CHEMBL2203015, “Synthesis and biological evaluation of 5-aryloxypyrazole derivatives bearing a rhodanine-3-aromatic acid as potential antimicrobial agents” (Bioorg Med Chem Lett, 2012).
≈ marks a conversion by molar mass, not a printed value. Calls of active or inactive are those of the source. The rule behind the calls is not given here.

Tests used:
Staphylococcus aureus [1] = test: Antibacterial activity against quinolone-resistant Staphylococcus aureus CCARM 3519 at 64 ug/ml incubated for 24 hrs serial dilution method; type: functional, organism-based
Staphylococcus aureus [2] = test: Antibacterial activity against quinolone-resistant Staphylococcus aureus CCARM 3505 at 64 ug/ml incubated for 24 hrs serial dilution method; type: functional, organism-based
Staphylococcus aureus [3] = test: Antibacterial activity against multidrug-resistant Staphylococcus aureus CCARM 3506 at 64 ug/ml incubated for 24 hrs serial dilution method; type: functional, organism-based
Staphylococcus aureus [4] = test: Antibacterial activity against multidrug-resistant Staphylococcus aureus CCARM 3167 at 64 ug/ml incubated for 24 hrs serial dilution method; type: functional, organism-based
Escherichia coli [5] = test: Antibacterial activity against Escherichia coli 1356 at 64 ug/ml incubated for 24 hrs serial dilution method; type: functional, organism-based
Staphylococcus aureus [6] = test: Antibacterial activity against Staphylococcus aureus KCTC 503 at 64 ug/ml incubated for 24 hrs serial dilution method; type: functional, organism-based
Staphylococcus aureus [7] = test: Antibacterial activity against Staphylococcus aureus KCTC 209 at 64 ug/ml incubated for 24 hrs serial dilution method; type: functional, organism-based
Staphylococcus aureus [8] = test: Antibacterial activity against Staphylococcus aureus RN 4220 at 64 ug/ml incubated for 24 hrs serial dilution method; type: functional, organism-based
Staphylococcus aureus [9] = test: Potency index, ratio of MIC for norfloxacin to MIC for compound against quinolone-resistant Staphylococcus aureus CCARM 3519 incubated for 24 hrs serial dilution method; type: functional
Staphylococcus aureus [10] = test: Potency index, ratio of MIC for norfloxacin to MIC for compound against quinolone-resistant Staphylococcus aureus CCARM 3505 incubated for 24 hrs serial dilution method; type: functional
Staphylococcus aureus [11] = test: Potency index, ratio of MIC for norfloxacin to MIC for compound against multidrug-resistant Staphylococcus aureus CCARM 3506 incubated for 24 hrs serial dilution method; type: functional
Staphylococcus aureus [12] = test: Potency index, ratio of MIC for norfloxacin to MIC for compound against multidrug-resistant Staphylococcus aureus CCARM 3167 incubated for 24 hrs serial dilution method; type: functional
Staphylococcus aureus [13] = test: Antibacterial activity against quinolone-resistant Staphylococcus aureus CCARM 3519 incubated for 24 hrs serial dilution method; type: functional; settings: CCARM 3519, 24 h
Staphylococcus aureus [14] = test: Antibacterial activity against quinolone-resistant Staphylococcus aureus CCARM 3505 incubated for 24 hrs serial dilution method; type: functional; settings: CCARM 3505, 24 h
Staphylococcus aureus [15] = test: Antibacterial activity against multidrug-resistant Staphylococcus aureus CCARM 3506 incubated for 24 hrs serial dilution method; type: functional; settings: CCARM 3506, 24 h
Staphylococcus aureus [16] = test: Antibacterial activity against multidrug-resistant Staphylococcus aureus CCARM 3167 incubated for 24 hrs serial dilution method; type: functional; settings: CCARM 3167, 24 h
Escherichia coli [17] = test: Antibacterial activity against Escherichia coli 1356 incubated for 24 hrs serial dilution method; type: functional; settings: Escherichia coli, 1356, 24 h
Staphylococcus aureus [18] = test: Antibacterial activity against Staphylococcus aureus KCTC 503 incubated for 24 hrs serial dilution method; type: functional; settings: KCTC 503, 24 h
Staphylococcus aureus [19] = test: Antibacterial activity against Staphylococcus aureus KCTC 209 incubated for 24 hrs serial dilution method; type: functional; settings: KCTC 209, 24 h
Staphylococcus aureus [20] = test: Antibacterial activity against Staphylococcus aureus RN 4220 incubated for 24 hrs serial dilution method; type: functional; settings: RN 4220, 24 h

| SMILES | Activity (Staphylococcus aureus [1]) | Activity (Staphylococcus aureus [2]) | Activity (Staphylococcus aureus [3]) | Activity (Staphylococcus aureus [4]) | Activity (Escherichia coli [5]) | Activity (Staphylococcus aureus [6]) | Activity (Staphylococcus aureus [7]) | Activity (Staphylococcus aureus [8]) | Ratio (Staphylococcus aureus [9]) | Ratio (Staphylococcus aureus [10]) | Ratio (Staphylococcus aureus [11]) | Ratio (Staphylococcus aureus [12]) | MIC (Staphylococcus aureus [13]) | MIC (Staphylococcus aureus [14]) | MIC (Staphylococcus aureus [15]) | MIC (Staphylococcus aureus [16]) | MIC (Escherichia coli [17]) | MIC (Staphylococcus aureus [18]) | MIC (Staphylococcus aureus [19]) | MIC (Staphylococcus aureus [20]) |
| --- | --- | --- | --- | --- | --- | --- | --- | --- | --- | --- | --- | --- | --- | --- | --- | --- | --- | --- | --- | --- |
| Cc1ccc(Oc2c(C=O)c(C)nn2-c2ccccc2)cc1 | inactive | inactive | inactive | inactive | inactive | inactive | inactive | inactive |  |  |  |  |  |  |  |  |  |  |  |  |
| Cc1nn(-c2ccccc2)c(Oc2cccc(C(F)(F)F)c2)c1C=O | inactive | inactive | inactive | inactive | inactive | inactive | inactive | inactive |  |  |  |  |  |  |  |  |  |  |  |  |
| Cc1nn(-c2ccccc2)c(Oc2ccc3ccccc3c2)c1C=O | inactive | inactive | inactive | inactive | inactive | inactive | inactive | inactive |  |  |  |  |  |  |  |  |  |  |  |  |
| COc1ccccc1Oc1c(C=O)c(C)nn1-c1ccccc1 | inactive | inactive | inactive | inactive | inactive | inactive | inactive | inactive |  |  |  |  |  |  |  |  |  |  |  |  |
| Cc1ccc(Oc2c(C=O)c(C)nn2-c2ccccc2)c(C)c1 | inactive | inactive | inactive | inactive | inactive | inactive | inactive | inactive |  |  |  |  |  |  |  |  |  |  |  |  |
| COc1ccc(Oc2c(/C=C3\SC(=S)N([C@@H](Cc4ccccc4)C(=O)O)C3=O)c(C)nn2-c2ccccc2)cc1 |  |  |  |  |  |  |  |  | 4 | 4 | 2 | 2 | 8 µg/mL (≈ 14 µM) | 8 µg/mL (≈ 14 µM) | 4 µg/mL (≈ 7 µM) | 4 µg/mL (≈ 7 µM) | > 64 µg/mL | > 64 µg/mL | > 64 µg/mL | 8 µg/mL (≈ 14 µM) |
| COc1ccccc1Oc1c(/C=C2\SC(=S)N([C@@H](Cc3ccccc3)C(=O)O)C2=O)c(C)nn1-c1ccccc1 |  |  |  |  |  |  |  |  | 4 | 4 | 2 | 2 | 8 µg/mL (≈ 14 µM) | 8 µg/mL (≈ 14 µM) | 8 µg/mL (≈ 14 µM) | 8 µg/mL (≈ 14 µM) | > 64 µg/mL | > 64 µg/mL | > 64 µg/mL | 16 µg/mL (≈ 28 µM) |
| Cc1nn(-c2ccccc2)c(Oc2ccc(Br)cc2)c1/C=C1\SC(=S)N([C@@H](Cc2ccccc2)C(=O)O)C1=O |  |  |  |  |  |  |  |  | 4 | 4 | 2 | 2 | 2 µg/mL (≈ 3.22 µM) | 2 µg/mL (≈ 3.22 µM) | 2 µg/mL (≈ 3.22 µM) | 2 µg/mL (≈ 3.22 µM) | > 64 µg/mL | > 64 µg/mL | > 64 µg/mL | 2 µg/mL (≈ 3.22 µM) |
| Cc1cccc(Oc2c(C=O)c(C)nn2-c2ccccc2)c1 | inactive | inactive | inactive | inactive | inactive | inactive | inactive | inactive |  |  |  |  |  |  |  |  |  |  |  |  |
| Cc1nn(-c2ccccc2)c(Oc2ccc(Cl)cc2)c1C=O | inactive | inactive | inactive | inactive | inactive | inactive | inactive | inactive |  |  |  |  |  |  |  |  |  |  |  |  |
